Measurements taken from US7820714B2, “Siglec inhibitors” (priority 2001, dated 2010).

Tests used:
[1] = molecular target: T1, Siglec-4a (MAG) (UniProt P20917); assay: Hapten inhibition assay, Siglec-4a (MAG); details: for Siglec-4a (MAG) rIP: quotient IC50 reference compound / IC50 compound; for IC50: read-out: Siglec-4a (MAG) IC50, unit inferred
T1 sequence (P20917 1-627): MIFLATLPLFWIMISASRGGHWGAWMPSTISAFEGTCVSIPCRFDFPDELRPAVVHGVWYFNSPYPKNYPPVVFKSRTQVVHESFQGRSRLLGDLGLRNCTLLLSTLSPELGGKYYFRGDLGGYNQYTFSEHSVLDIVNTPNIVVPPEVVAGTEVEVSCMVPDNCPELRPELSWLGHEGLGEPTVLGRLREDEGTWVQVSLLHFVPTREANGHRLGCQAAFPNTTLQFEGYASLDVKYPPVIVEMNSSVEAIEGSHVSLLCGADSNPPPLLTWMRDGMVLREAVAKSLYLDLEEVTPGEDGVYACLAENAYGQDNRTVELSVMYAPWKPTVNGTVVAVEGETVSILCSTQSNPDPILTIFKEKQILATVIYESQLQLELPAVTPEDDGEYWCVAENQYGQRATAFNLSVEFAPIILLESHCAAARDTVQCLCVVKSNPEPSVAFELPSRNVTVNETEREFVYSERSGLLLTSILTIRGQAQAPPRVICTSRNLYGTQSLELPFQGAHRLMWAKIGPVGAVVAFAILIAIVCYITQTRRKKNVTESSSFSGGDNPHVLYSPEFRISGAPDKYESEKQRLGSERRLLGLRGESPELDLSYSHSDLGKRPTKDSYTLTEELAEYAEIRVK
Description: Preferably, the inhibition can be determined by a Hapten inhibition test. […] After overnight incubation at 4° C. the unbound complexes are removed by washing the cells and the bound radioactivity is determined. […] Then followed the addition of 10 μl of a suspension of target cells, preferably 0.25 to 0.5% of human erythrocytes and incubation overnight at 4° C. The unbound radioactivity is removed by washing the cells five times with 200 μl of washing buffer, preferably phosphate-buffered saline with 0.1% (W/V) bovine serum albumin, and the cell-bound activity is determined with a γ-counter. […] The inhibition is determined in that the value without inhibitor is set to 0% and that with the sialidase-treated cells is set equal to 100%.

[2] = molecular target: T2, Siglec-2 (human CD22) (Homo sapiens, UniProt P20273); assay: Hapten inhibition assay, Siglec-2 (human CD22); format: binding; details: for Siglec-2 (human CD22) rIP: quotient IC50 reference compound / IC50 compound; for IC50: unit inferred
T2 sequence (P20273 20-138 limits assumed): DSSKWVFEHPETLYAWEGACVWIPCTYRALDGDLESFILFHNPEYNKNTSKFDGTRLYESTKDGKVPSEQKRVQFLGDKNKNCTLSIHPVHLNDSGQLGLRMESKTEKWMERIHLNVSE
Description: (§1) Preferably, the inhibition can be determined by a Hapten inhibition test. […] After overnight incubation at 4° C. the unbound complexes are removed by washing the cells and the bound radioactivity is determined. From the data obtained in this way, the concentrations are found which lead to 50% inhibition of the binding (IC50 values) (5, 6). Specially preferred during the Hapten inhibition test was 10 μl of the complex solution with an activity of 10^3 Bq ^125I mixed with the same volume of a solution of the substance to be investigated (concentrated three times) and incubated at 4° C. for one hour. Then followed the addition of 10 μl of a suspension of target cells, preferably 0.25 to 0.5% of human erythrocytes and incubation overnight at 4° C. The unbound radioactivity is removed by washing the cells five times with 200 μl of washing buffer, preferably phosphate-buffered saline with 0.1% (W/V) bovine serum albumin, and the cell-bound activity is determined with a γ-counter. […] The inhibition is determined in that the value without inhibitor is set to 0% and that with the sialidase-treated cells is set equal to 100%.
(§2) The IC50 value is the siglec inhibitor concentration which leads to 50% inhibition in the binding in the Hapten inhibition assay.

[3] = molecular target: Siglec-1 (sialoadhesin) (Mus musculus, UniProt Q62230); assay: Hapten inhibition assay, Siglec-1 (sialoadhesin); format: binding; details: for Siglec-1 (sialoadhesin) rIP: quotient IC50 reference compound / IC50 compound; for Siglec-1 (sialoadhesin) percentage in parentheses below the IC50 bound: at the concentration of the IC50 bound, meaning not defined in the patent
Siglec-1 (sialoadhesin), sequence (Q62230 20-136 limits assumed): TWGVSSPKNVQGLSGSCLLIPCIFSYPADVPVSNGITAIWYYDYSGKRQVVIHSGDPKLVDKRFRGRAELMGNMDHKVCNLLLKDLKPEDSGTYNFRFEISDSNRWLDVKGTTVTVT
Description: as §1, §2

[4] = molecular target: T3, Siglec-2 (murine CD22) (Mus musculus, UniProt P35329); assay: Hapten inhibition assay, Siglec-2 (murine CD22); format: binding; details: for Siglec-2 (murine CD22) rIP: quotient IC50 reference compound / IC50 compound; for IC50: unit inferred
T3 sequence (P35329 22-148 limits assumed): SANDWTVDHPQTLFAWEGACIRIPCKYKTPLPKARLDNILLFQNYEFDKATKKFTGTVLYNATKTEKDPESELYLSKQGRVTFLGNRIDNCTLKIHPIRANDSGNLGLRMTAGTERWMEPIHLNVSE
Description: as §1, §2

Compound | Siglec-4a (MAG) rIP [1] | IC50 [1] | Siglec-2 (human CD22) rIP [2] | IC50 [2] | Siglec-1 (sialoadhesin) rIP [3] | IC50 ([3]; unit inferred) | Siglec-2 (murine CD22) rIP [4] | IC50 [4] | binds stronger to siglec-4a than the reference compound ([1]; relative to 2-alpha-methyl-5-N-acetyl-neuraminic acid) | Siglec-1 (sialoadhesin) percentage in parentheses below the IC50 bound [3] | IC50 ([3]; bounds given in mM)
CO[C@]1(C(=O)O)C[C@H](O)[C@@H](NC(C)=O)[C@H]([C@H](O)[C@H](O)CNC(=O)c2ccc([N+](=O)[O-])cc2[N+](=O)[O-])O1 [Methyl-α-9-N-(2,4-dinitrobenzoyl)-amino-9-desoxy-Neu5Ac] | 18 | 205 µM | 7.7 | 287 µM | 0.3 | 0.733 mM | 7.9 | 593 µM |  |  | 
CO[C@]1(C(=O)O)C[C@H](O)[C@@H](NC(C)=O)[C@H]([C@H](O)[C@H](O)CNC(=O)c2cccnc2)O1 [Methyl-α-9-N-(pyridine-3-carbonyl)-amino-9-desoxy-Neu5Ac] | 170 | 25 µM | 2.3 | 445 µM | 0.5 |  | 14 | 335 µM |  |  | 
CS[C@]1(C(=O)O)C[C@H](O)[C@@H](NC(C)=O)[C@H]([C@H](O)[C@H](O)CO)O1 [Methylthio-α-Neu5Ac] | 1.3 | 2780 µM | 1.6 | 1370 µM | 0.8 | 0.6 mM | 1.1 | 4250 µM |  |  | 
CO[C@]1(C(=O)O)C[C@H](O)[C@@H](NC(C)=O)[C@H]([C@H](O)[C@H](O)CNC(=O)c2cccc3ccccc23)O1 [Methyl-α-9-N-(naphthyl-1-carbonyl)-amino-9-desoxy-Neu5Ac] | 84 | 56 µM | 27 | 37 µM | 0.3 | 3 mM | 64 | 92 µM |  |  | 
COC1(C(=O)O)CC(O)C(NC(C)=O)C(C(O)C(O)CNC(=O)c2ccc3ccccc3c2)O1 (stereo not drawn) [Methyl-α-9-N-(naphthyl-2-carbonyl)-amino-9-desoxy-Neu5Ac] | 236 | 20 µM | 167 | 6 µM | 12 | 0.078 mM | 18 | 270 µM | approx. 236 times |  | 
Methyl-α-9-N-fluoresceinyl-amino-9-desoxy-Neu5Ac | 41 | 106 µM | 28 | 77 µM | <<0.5 |  | 48 | 100 µM |  | (121%) | > 1.5 mM
CO[C@]1(C(=O)O)C[C@H](O)[C@@H](NC(C)=O)[C@H]([C@H](O)[C@H](O)CNC(=O)C(c2ccccc2)c2ccccc2)O1 [Methyl-α-9-N-(diphenylacetyl)-amino-9-desoxy-Neu5Ac] | 31 | 150 µM |  | 35 µM | 0.2 | 4.4 mM |  | 103 µM |  |  | 
CO[C@]1(C(=O)O)C[C@H](O)[C@@H](NC(C)=O)[C@H]([C@H](O)[C@H](O)CNC(=O)C2CCCCC2)O1 [Methyl-α-9-N-cyclohexanoyl-amino-9-desoxy-Neu5Ac] | 50 | 110 µM | 4.1 | 383 µM | 0.2 |  | 6.9 | 760 µM |  | (93%) | > 1 mM
CO[C@]1(C(=O)O)C[C@H](O)[C@@H](NC(C)=O)[C@H]([C@H](O)[C@H](O)CO)O1 [Methyl-α-Neu5Ac, reference compound] | 1.0 | 4720 µM | 1.0 | 1390 µM | 1.0 | 0.884 mM | 1.0 | 4690 µM |  |  | 
